From US20260028365A1 (BIOGEN MA INC., priority 2022, published 2026)
Where a name gives a salt, the structure may show the parent alone. Read-outs that look alike come from different tables or passages of the source.

Experiments:
JH2 domain of human Tyk2 = JH2 domain of human Tyk2 (Homo sapiens (Human), UniProt P29597); assay: JH2 Biochemical Assay (TR-FRET probe displacement); type: binding
Tyk2 = Tyk2 (Homo sapiens (Human), UniProt P29597); assay: pSTAT4 Cell Assay (MSD, NK92 cells); type: cell-based
Chain of Tyk2 (P29597 whole entry, the tested form may be a part): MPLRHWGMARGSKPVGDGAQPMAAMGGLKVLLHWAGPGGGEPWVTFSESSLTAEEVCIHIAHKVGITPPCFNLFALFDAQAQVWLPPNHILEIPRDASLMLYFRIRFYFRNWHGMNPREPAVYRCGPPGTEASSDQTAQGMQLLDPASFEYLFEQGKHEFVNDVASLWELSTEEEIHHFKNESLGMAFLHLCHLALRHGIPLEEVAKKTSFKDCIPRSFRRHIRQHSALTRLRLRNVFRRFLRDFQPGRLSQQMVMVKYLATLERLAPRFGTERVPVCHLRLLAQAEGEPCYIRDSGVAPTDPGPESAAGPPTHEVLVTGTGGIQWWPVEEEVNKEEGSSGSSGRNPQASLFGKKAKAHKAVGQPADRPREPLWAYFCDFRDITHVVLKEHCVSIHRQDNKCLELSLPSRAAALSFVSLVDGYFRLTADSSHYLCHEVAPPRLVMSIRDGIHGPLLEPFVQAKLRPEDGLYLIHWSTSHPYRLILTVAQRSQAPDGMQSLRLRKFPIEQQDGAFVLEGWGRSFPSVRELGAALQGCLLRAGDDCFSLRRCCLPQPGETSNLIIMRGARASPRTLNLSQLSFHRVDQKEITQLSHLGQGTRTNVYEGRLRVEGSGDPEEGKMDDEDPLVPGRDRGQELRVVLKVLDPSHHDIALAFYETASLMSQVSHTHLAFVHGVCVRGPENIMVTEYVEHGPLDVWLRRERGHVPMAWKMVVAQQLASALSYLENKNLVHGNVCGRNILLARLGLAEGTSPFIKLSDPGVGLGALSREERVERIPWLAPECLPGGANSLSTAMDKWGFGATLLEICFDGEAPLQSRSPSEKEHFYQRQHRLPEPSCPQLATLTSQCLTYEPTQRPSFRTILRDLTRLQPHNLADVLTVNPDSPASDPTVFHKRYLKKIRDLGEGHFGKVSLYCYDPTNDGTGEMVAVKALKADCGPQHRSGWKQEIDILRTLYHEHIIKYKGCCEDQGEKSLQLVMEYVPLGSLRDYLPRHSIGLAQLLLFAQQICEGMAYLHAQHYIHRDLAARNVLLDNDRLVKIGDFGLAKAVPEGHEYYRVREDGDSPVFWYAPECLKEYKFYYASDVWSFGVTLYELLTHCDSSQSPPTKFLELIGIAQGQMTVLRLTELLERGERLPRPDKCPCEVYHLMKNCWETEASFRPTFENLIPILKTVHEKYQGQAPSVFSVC

[1] = JH2 domain of human Tyk2, TR-FRET probe displacement
[2] = TR-FRET probe displacement, JH2 domain
[3] = TR-FRET probe displacement, JH2 domain of human Tyk2

Chain of JH2 domain of human Tyk2 (P29597 575-876): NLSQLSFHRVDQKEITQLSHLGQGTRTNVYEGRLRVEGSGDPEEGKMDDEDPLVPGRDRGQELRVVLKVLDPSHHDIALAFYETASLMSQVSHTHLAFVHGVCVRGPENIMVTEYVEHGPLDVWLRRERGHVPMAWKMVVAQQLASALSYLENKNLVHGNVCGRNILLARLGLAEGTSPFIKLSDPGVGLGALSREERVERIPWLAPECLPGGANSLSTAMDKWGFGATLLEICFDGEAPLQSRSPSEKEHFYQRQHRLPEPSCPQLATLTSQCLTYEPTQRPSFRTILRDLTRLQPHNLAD

| SMILES | IC50 (JH2 domain of human Tyk2; [1]) | IC50 (Tyk2; MSD) | IC50 (JH2 domain of human Tyk2; [2]) | IC50 (Tyk2) | IC50 (JH2 domain of human Tyk2; [3]) |
| --- | --- | --- | --- | --- | --- |
| CC(=O)Nc1cc(Nc2ccnc(C(C)(F)F)n2)c(-c2cc3n(n2)CCOC3)cn1 [Example 529, N-(4-((2-(1,1-difluoroethyl)pyrimidin-4-yl)amino)-5-(6,7-dihydrO4H-pyrazolo[5,1-c][1,4]oxazin-2-yl)pyridin-2-yl)acetamide] | ≤ 10 nM | ≤ 10 nM |  |  |  |
| CC(=O)Nc1cc(Nc2cc(C)nc(C(C)(F)F)n2)c(-c2cncc(C3CC3)n2)cn1 [Example 667, N-(5-(6-cyclopropylpyrazin-2-yl)-4-((2-(1,1-difluoroethyl)-6-methylpyrimidin-4-yl)amino)pyridin-2-yl)acetamide] | ≤ 10 nM | 10 to 100 nM |  |  |  |
| CC(=O)Nc1cc(Nc2cc(C)nc(C3CCOC3)n2)c(-c2ccn(C)n2)cn1 (centres unmarked) [Example 555, N-(5-(1-methyl-1H-pyrazol-3-yl)-4-((6-methyl-2-(tetrahydrofuran-3-yl)pyrimidin-4-yl)amino)pyridin-2-yl)acetamide] | ≤ 10 nM | 10 to 100 nM |  |  |  |
| CCOc1cnc(NC(C)=O)cc1Nc1cc(C)nc(C(F)(F)CC)n1 [Example 516, N-(4-((2-(1,1-difluoropropyl)-6-methylpyrimidin-4-yl)amino)-5-ethoxypyridin-2-yl)acetamide] | ≤ 10 nM | 100 to 1000 nM |  |  |  |
| CC(=O)Nc1cc(Nc2cc(OC3CC3)nc(C(C)(F)F)n2)c(-c2cnccn2)cn1 [Example 824, N-(4-((6-cyclopropoxy-2-(1,1-difluoroethyl)pyrimidin-4-yl)amino)-5-(pyrazin-2-yl)pyridin-2-yl)acetamide] |  |  | ≤ 10 nM | 10 to 100 nM |  |
| CC(=O)Nc1cc(Nc2cc(C)nc(C(C)(F)F)n2)c(OC[C@H](C)OC(C)(C)C)cn1 [Example 318, (S)-N-(5-(2-(tert-butoxy)propoxy)-4-((2-(1,1-difluoroethyl)-6-methylpyrimidin-4-yl)amino)pyridin-2-yl)acetamide] |  | 100 to 1000 nM |  |  | ≤ 10 nM |
| C=Cc1cc(Nc2cc(NC(C)=O)ncc2OCCOC)nc(C(C)(F)F)n1 [Example 55, N-(4-((2-(1,1-difluoroethyl)-6-vinylpyrimidin-4-yl)amino)-5-(2-methoxyethoxy)pyridin-2-yl)acetamide] |  | ≤ 10 nM |  |  | ≤ 10 nM |
| CCc1cc(Nc2cc(NC(C)=O)ncc2-c2ccc(OCCOC)nn2)nc(C(C)(F)F)n1 [Example 269, N-(4-((2-(1,1-difluoroethyl)-6-ethylpyrimidin-4-yl)amino)-5-(6-(2-methoxyethoxy)pyridazin-3-yl)pyridin-2-yl)acetamide trifluoroacetate] |  | ≤ 10 nM |  |  | ≤ 10 nM |
| COc1ccc(-c2cnc(NC(C)=O)cc2Nc2cc(C)nc(C(C)(F)F)n2)nc1OC [Example 637, N-(4′-((2-(1,1-difluoroethyl)-6-methylpyrimidin-4-yl)amino)-5,6-dimethoxy-[2,3′-bipyridin]-6′-yl)acetamide] | ≤ 10 nM | ≤ 10 nM |  |  |  |
| COCc1cnc(NC(C)=O)cc1Nc1cc(C)nc(C(C)(F)F)n1 [Example 47, N-(4-((2-(1,1-difluoroethyl)-6-methylpyrimidin-4-yl)amino)-5-(methoxymethyl)pyridin-2-yl)acetamide] |  | ≥ 1000 nM |  |  | 10 to 100 nM |
| COc1cnc(NC(C)=O)cc1Nc1cc(-c2ccncc2)nc(C(C)(F)F)n1 [Example 382, N-(4-((2-(1,1-difluoroethyl)-6-(pyridin-4-yl)pyrimidin-4-yl)amino)-5-methoxypyridin-2-yl)acetamide] | 10 to 100 nM | 10 to 100 nM |  |  |  |
| CC(=O)Nc1cc(Nc2cc(C)nc(C(C)(F)F)n2)c(OCc2cnc(C3CC3)o2)cn1 [Example 344, N-(5-((2-cyclopropyloxazol-5-yl)methoxy)-4-((2-(1,1-difluoroethyl)-6-methylpyrimidin-4-yl)amino)pyridin-2-yl)acetamide] |  | 10 to 100 nM |  |  | ≤ 10 nM |
| CCOc1cnc(NC(C)=O)cc1Nc1cc(OC2CC3(COC3)C2)nc(C(C)(F)F)n1 [Example 297, N-(4-((6-((2-oxaspiro[3.3]heptan-6-yl)oxy)-2-(1,1-difluoroethyl)pyrimidin-4-yl)amino)-5-ethoxypyridin-2-yl)acetamide] |  | ≤ 10 nM |  |  | ≤ 10 nM |
| CC(=O)Nc1cc(Nc2cc(C)nc(C(C)(F)F)n2)c(OCC23COCC(C2)C3)cn1 [Example 324, N-(5-((3-oxabicyclo[3.1.1]heptan-1-yl)methoxy)-4-((2-(1,1-difluoroethyl)-6-methylpyrimidin-4-yl)amino)pyridin-2-yl)acetamide] |  | 10 to 100 nM |  |  | ≤ 10 nM |
| CO[C@H]1C[C@H](Oc2cnc(NC(C)=O)cc2Nc2cc(C(C)C)nc(C(C)(F)F)n2)C1 [Example 408, N-(4-((2-(1,1-difluoroethyl)-6-isopropylpyrimidin-4-yl)amino)-5-((1r,3r)-3-methoxycyclobutoxy)pyridin-2-yl)acetamide] | ≤ 10 nM | ≤ 10 nM |  |  |  |
| COc1cnc(NC(C)=O)cc1Nc1cc(-c2ccncc2F)nc(C(C)(F)F)n1 [Example 373, N-(4-((2-(1,1-difluoroethyl)-6-(3-fluoropyridin-4-yl)pyrimidin-4-yl)amino)-5-methoxypyridin-2-yl)acetamide] | ≤ 10 nM | 10 to 100 nM |  |  |  |

| SMILES | IC50 (JH2 domain of human Tyk2; [1]) | IC50 (Tyk2; MSD) | IC50 (JH2 domain of human Tyk2; [2]) | IC50 (Tyk2) | IC50 (JH2 domain of human Tyk2; [3]) |
| --- | --- | --- | --- | --- | --- |
| COCCOc1ccc(-c2cnc(NC(C)=O)cc2Nc2ccnc(C(C)(F)F)n2)nc1 [Example 523, N-(4′-((2-(1,1-difluoroethyl)pyrimidin-4-yl)amino)-5-(2-methoxyethoxy)-[2,3′-bipyridin]-6′-yl)acetamide] | ≤ 10 nM | ≤ 10 nM |  |  |  |
| COc1cnc(NC(C)=O)cc1Nc1cc(-c2cnn(C(C)C)c2)nc(C(C)(F)F)n1 [Example 363, N-(4-((2-(1,1-difluoroethyl)-6-(1-isopropyl-1H-pyrazol-4-yl)pyrimidin-4-yl)amino)-5-methoxypyridin-2-yl)acetamide] |  | ≤ 10 nM |  |  | ≤ 10 nM |
| CO[C@H]1C[C@@H](Oc2cnc(NC(C)=O)cc2Nc2cc(C(C)C)nc(C(C)(F)F)n2)C1 [Example 409, N-(4-((2-(1,1-difluoroethyl)-6-isopropylpyrimidin-4-yl)amino)-5-((1s,3s)-3-methoxycyclobutoxy)pyridin-2-yl)acetamide] | ≤ 10 nM | 10 to 100 nM |  |  |  |
| COCCOc1cnc(NC(C)=O)cc1Nc1nc(C)cc(C(C)(C)F)n1 [Example 441, N-(4-((4-(2-fluoropropan-2-yl)-6-methylpyrimidin-2-yl)amino)-5-(2-methoxyethoxy)pyridin-2-yl)acetamide] | ≤ 10 nM | 100 to 1000 nM |  |  |  |
| CC(=O)Nc1cc(Nc2cc(C)nc(C(C)(F)F)n2)c(OCCc2ccccn2)cn1 [Example 476, N-(4-((2-(1,1-difluoroethyl)-6-methylpyrimidin-4-yl)amino)-5-(2-(pyridin-2-yl)ethoxy)pyridin-2-yl)acetamide] | ≤ 10 nM | 10 to 100 nM |  |  |  |
| CC(=O)Nc1cc(Nc2ccnc(C(C)(F)F)n2)c(-c2cnc(N3C[C@H]4C[C@@H](C3)O4)cn2)cn1 [Example 887, N-(5-(5-((1R,5S)-6-oxa-3-azabicyclo[3.1.1]heptan-3-yl)pyrazin-2-yl)-4-((2-(1,1-difluoroethyl)pyrimidin-4-yl)amino)pyridin-2-yl)acetamide] |  |  | ≤ 10 nM | 10 to 100 nM |  |
| CC(=O)Nc1cc(Nc2cc(C)nc(C(C)(F)F)n2)c(-c2cc(C#N)ccn2)cn1 [Example 631, N-(4-cyanO4′-((2-(1,1-difluoroethyl)-6-methylpyrimidin-4-yl)amino)-[2,3′-bipyridin]-6′-yl)acetamide] | ≤ 10 nM | 10 to 100 nM |  |  |  |
| CCOc1cnc(NC(C)=O)cc1Nc1nc(C(C)(F)F)ncc1F [Example 34, N-(4-((2-(1,1-difluoroethyl)-5-fluoropyrimidin-4-yl)amino)-5-ethoxypyridin-2-yl)acetamide] |  | ≥ 1000 nM |  |  | 10 to 100 nM |
| CCc1cc(Nc2cc(NC(C)=O)ncc2-c2ccc(=O)n(C)n2)nc(C(C)(F)F)n1 [Example 865, N-(4-((2-(1,1-difluoroethyl)-6-ethylpyrimidin-4-yl)amino)-5-(1-methyl-6-oxo-1,6-dihydropyridazin-3-yl)pyridin-2-yl)acetamide] |  |  | ≤ 10 nM | 10 to 100 nM |  |
| CC(=O)Nc1cc(Nc2cc(C)nc(C(C)(F)F)n2)c(-c2ncc(CN3CCN(C)CC3)s2)cn1 [Example 783, N-(4-((2-(1,1-difluoroethyl)-6-methylpyrimidin-4-yl)amino)-5-(5-((4-methylpiperazin-1-yl)methyl)thiazol-2-yl)pyridin-2-yl)acetamide] |  |  | ≤ 10 nM | ≤ 10 nM |  |
| CC(=O)Nc1cc(Nc2cc(C)nc(C(C)(F)F)n2)c(-c2csc(C(C)C)n2)cn1 [Example 612, N-(4-((2-(1,1-difluoroethyl)-6-methylpyrimidin-4-yl)amino)-5-(2-isopropylthiazol-4-yl)pyridin-2-yl)acetamide] | ≤ 10 nM | ≤ 10 nM |  |  |  |
| CC(=O)Nc1cc(Nc2cc(OC3CC3)nc(C(C)(F)F)n2)c(Oc2cnn(C)c2)cn1 [Example 301, N-(4-((6-cyclopropoxy-2-(1,1-difluoroethyl)pyrimidin-4-yl)amino)-5-((1-methyl-1H-pyrazol-4-yl)oxy)pyridin-2-yl)acetamide] |  | 100 to 1000 nM |  |  | 10 to 100 nM |
| COc1cc(Nc2ccnc(NC(C)=O)c2)nc(C(C)(F)F)n1 [Example 808, N-(4-((2-(1,1-difluoroethyl)-6-methoxypyrimidin-4-yl)amino)pyridin-2-yl)acetamide] |  |  | 10 to 100 nM | ≥ 1000 nM |  |
| CC(=O)Nc1cc(Nc2ccnc(C(C)(F)F)n2)c(-c2ccn(CC3CC3)n2)cn1 [Example 704, N-(5-(1-(cyclopropylmethyl)-1H-pyrazol-3-yl)-4-((2-(1,1-difluoroethyl)pyrimidin-4-yl)amino)pyridin-2-yl)acetamide] | ≤ 10 nM | ≤ 10 nM |  |  |  |
| CC(=O)Nc1cc(Nc2cc(C)nc(C(C)(F)F)n2)c(-c2cc3n(n2)CCN(C(C)=O)C3)cn1 [Example 222, N-(5-(5-acetyl-4,5,6,7-tetrahydropyrazolo[1,5-a]pyrazin-2-yl)-4-((2-(1,1-difluoroethyl)-6-methylpyrimidin-4-yl)amino)pyridin-2-yl)acetamide trifluoroacetate] |  | ≤ 10 nM |  |  | ≤ 10 nM |
